Results on five substances are retold here after patent publication US20210132065A1, “MAMMALIAN MHC PEPTIDE DISPLAY AS AN EPITOPE SELECTION TOOL FOR VACCINE DESIGN” (ETH Zürich, priority 2018, published 2021).

One experiment has as its system HLA-DRB1_4. The format is cell-based, human. To be noted: for MCR surface expression: peptide covalently linked to beta chain, anti-HLA-DR APC antibody, FACS.
A further experiment concerns HLA DRB 1-4. To be noted: published studies; cited from earlier work.

Where two headings read alike, the source gives them in different places. Where no end group is shown, it is not given here.

In the case of “MP1103-120: influenza Matrix Protein 1 peptide, amino acids 103-120, covalently linked to the HLA beta chain of the MCR (LKREITFHGAKEISLSYS; also: covalently linked to HLA beta chain of the MCR; UniProt P03485 103-120, looked up, fragment)”, the MCR surface expression result in the experiment with HLA-DRB1_4 is “efficient surface expression”; with HLA-DRB1_4 (listed as MP1103-121), “high surface expression”.

With “MP1 107-121: MP1 peptide comprising amino acids 107-121, known from published studies (Schmid et al Immunity 2007) (ITFHGAKEISLSYSA; UniProt P03485 107-121, looked up, fragment)”, in the experiment with HLA DRB 1-4, the “presentation by HLA” value is on record as “efficiently presented”.

Consider “MP1107-117: core epitope of influenza Matrix Protein 1, amino acids 107-117, tested within peptides with different flanking regions (ITFHGAKEISL; UniProt P03485 107-117, looked up, fragment)”, for which the “presentation (MCR surface expression)” value with HLA-DRB1_4 (FIG. 6, anti-CD3e or anti-HLA-DR PE antibodies, peptides containing the core epitope with different flanking regions) was “efficiently be presented”.

In the case of “MP1 103-117: MP1 peptide comprising amino acids 103-117, known from published studies (Schmid et al Immunity 2007) (LKREITFHGAKEISL; UniProt P03485 103-117, looked up, fragment)”, the “presentation by HLA” value in the experiment on HLA DRB 1-4 is recorded as “efficiently presented”.

For the substance “MP162-72: influenza Matrix Protein 1-derived peptide comprising amino acids 62-72, covalently linked to the HLA beta chain of the MCR (FVFTLTVPSER; also: covalently linked to HLA beta chain of the MCR; UniProt P03485 62-72, looked up, fragment)”, in the experiment with HLA-DRB1_4, the MCR surface expression result is recorded as “not the other HLAs tested”.
